In one series the test system is Staphylococcus aureus. Nature of the series: antibacterial effect, polypeptide co-cultured with microbe. The format is cell-based. The settings on record: polypeptide 250 μg/mL; 10^8 CFU/mL; co-cultured at 37° C. for 24 hours.
The subject of a further series is Escherichia coli. The series is described as above. Format: cell-based. The settings on record: polypeptide 250 μg/mL; 10^8 CFU/mL; co-cultured at 37° C. for 24 hours.
A further series has as its system Pseudomonas aeruginosa. The series is described as above. The settings on record: polypeptide 250 μg/mL; 10^8 CFU/mL; co-cultured at 37° C. for 24 hours. Format: cell-based.
A further series has as its system Candida albicans. The series is described as above. Format: cell-based. The settings on record: polypeptide 250 μg/mL; 10^8 CFU/mL; co-cultured at 37° C. for 24 hours.
Series [1] has as its system methicillin-resistant Staphylococcus aureus. Nature of the series: antibacterial effect against drug-resistant bacteria. The format is cell-based. The settings on record: 100 μg/mL. Here is the method: The above polypeptide (prepared by Method 1) was added in methicillin-resistant Staphylococcus aureus solutions at concentrations of 10^8 and 10^9 CFU/mL respectively according to the polypeptide concentration gradient, and then co-cultured at 37° C. for 24 hours. The polypeptide was effective in killing methicillin-resistant Staphylococcus aureus in the effective concentration range. The antimicrobial rate of 100 μg/mL of polypeptide solution could reach up to 100% (FIG. 2) and 98% or more (FIG. 3) respectively.

Series [2] deals with rats. Nature of the series: safety (acute systemic inflammation) after caudal vein injection, blood routine examination. The format is in vivo. The protocol:
(§1) The polypeptide (prepared by Method 1) of the present disclosure was dissolved in physiological saline at a concentration of 1 mg/mL and injected into rats through the caudal vein at a dose of 8 mg/kg.

The test system of series [3] is rats. As to the kind of experiment: in vivo hemocompatibility after caudal vein injection, blood routine examination. Here is the method:
as §1

A further series concerns fibroblasts. As to the kind of experiment: cell viability of fibroblasts, Cell Counting Kit-8. The settings on record: DMEM with 10% fetal bovine serum, 48 h, effective concentration range (FIG. 4). Format: cell-based. The protocol:
The polypeptide (prepared by Method 2) of the disclosure was added at different concentrations to Dulbecco's Modified Eagle's Medium (DMEM) containing fetal bovine serum (10% by volume) and used to culture fibroblasts. Cells were seeded at 10,000 cells per well in 96-well plates, incubated at 37° C. with a medium containing polypeptides at various concentrations as described above, and the cell viability was determined after 48 h using the Cell Counting Kit-8 method.
On the technique in general: Tetrazolium assays rely on reduction of a dye to a coloured formazan, in cell work by metabolically active cells.

Where [4] appears, read: MRSA 10^8 CFU/mL, 37° C. 24 hours (FIG. 2).
[5] abbreviates: MRSA 10^9 CFU/mL, 37° C. 24 hours (FIG. 3).
The mark [6] stands for this setting: 1 mg/mL in physiological saline, caudal vein, 8 mg/kg, 24 h.
Setting [7] is: rat blood, 24 h after 8 mg/kg caudal vein injection (FIG. 5).
[8] abbreviates: rat blood 24 h after 8 mg/kg caudal vein injection.

Data on three compounds can be found in patent publication US20250090627A1, “NUTRITIONAL POLYPEPTIDE HAVING BRANCHED-STRUCTURE WITH EFFICIENT BROAD-SPECTRUM ANTIBACTERIAL AND ANTIFUNGAL FUNCTIONS” (ZHEJIANG UNIVERSITY, priority 2022, published 2025).

Some results are limits rather than exact numbers.

Take “hyperbranched polylysine [polypeptide (prepared by Method 1)]”: in the series with Staphylococcus aureus, the antibacterial effect was 100%. In the series on Escherichia coli, this compound yielded an antibacterial effect of 100%. For the same compound, the antibacterial effect with Pseudomonas aeruginosa came to 100%. This compound yielded an antibacterial effect in the series on Candida albicans of 100%. Moreover, the antimicrobial rate in series [1] (setting [4]) was determined as 100%. Also, the antimicrobial rate in series [1] (setting [5]) was at least 98%. In the series on rats [2] (setting [6]), the behavior of rats result is reported as “no abnormal behavior”. The survival of rats entry in the series with rats [2] (1 mg/mL in physiological saline, caudal vein, 8 mg/kg, after 24 h) is listed as “still alive”. Further, the inflammatory features result with rats [2] (rat blood routine examination, 24 h after 8 mg/kg caudal vein injection) is “no inflammatory features”. In addition, in the series with rats [2] (setting [7]), the “cell concentration of lymphocytes (Lym)” value was “in the normal range”, the “cell concentration of monocytes (Mon)” value is “in the normal range”, the “cell concentration of neutrophils (Neu)” value was “in the normal range” and the “cell concentration of white blood cells (WBC)” value is “in the normal range”. Further, in the series on rats [3] (setting [6]), the behavior of rats entry is “no abnormal behavior” and the survival of rats entry is “survived”. Also, in the series on rats [3] (setting [8]), the “concentration of hemoglobin (HGB), in words” value is reported as “in the normal range”; the “concentration of platelet (PLT), in words” value is reported as “in the normal range”; the “concentration of red blood cell (RBC), in words” value is on record as “in the normal range”. In addition, in the series on rats [3] (rat blood 24 h after injection at 1 mg/mL (8 mg/kg), normal range 6.36-9.42), the “Red blood cell concentration” value is 6.3 ± 0.3 10^12/L. Further, in the series with rats [3] (rat blood 24 h after injection at 1 mg/mL (8 mg/kg), normal range 110-143), the Hemoglobin content amounted to 141.8 ± 10.1 g/L. Also, in the series with rats [3] (rat blood 24 h after injection at 1 mg/mL (8 mg/kg), normal range 450-1590), the Platelet concentration was 847.0 ± 140.1 10^9/L.

As to `CC1(C)S[C@@H]2[C@H](NC(=O)Cc3ccccc3)C(=O)N2[C@H]1C(=O)O` [penicillin G, reference compound], the antimicrobial rate result in series [1] (setting [4]) and in series [1] (setting [5]) was “less than 10%” throughout.

Take “hyperbranched polylysine [polypeptide (prepared by Method 2)]”: the “cytotoxicity (cell viability)” value in the series on fibroblasts is listed as “not cytotoxic”.
